These molecules were tested against T1, MAGL protein (Homo sapiens, UniProt Q99685) (assay: 2-AG assay: MAGL inhibitory activity by hydrolysis of 2-arachidonoylglycerol to arachidonic acid, followed by mass spectrometry). Conditions: 8 μM 2-arachidonoylglycerol, 15 min preincubation, 30 min reaction at RT, RapidFire MS readout.
T1 sequence (Q99685 1-303): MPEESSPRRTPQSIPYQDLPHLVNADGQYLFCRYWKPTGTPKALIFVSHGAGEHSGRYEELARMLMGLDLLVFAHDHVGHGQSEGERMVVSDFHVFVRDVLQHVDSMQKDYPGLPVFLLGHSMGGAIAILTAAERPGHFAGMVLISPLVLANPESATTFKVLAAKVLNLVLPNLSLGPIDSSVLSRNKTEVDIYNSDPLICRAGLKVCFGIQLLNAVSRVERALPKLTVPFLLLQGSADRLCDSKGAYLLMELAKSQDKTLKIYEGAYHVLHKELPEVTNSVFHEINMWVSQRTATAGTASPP
Format: biochemical
How it was run: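 MAGL was preincubated 15 min at RT with compound (12.5 to […], 3-fold steps) in 50 mM TRIS, 1 mM EDTA, 0.01% Tween-20, 2.5% DMSO. The reaction ran 30 min at RT with 8 μM 2-AG. Arachidonic acid was quantified by RapidFire SPE-MS/MS against a d8-arachidonic acid internal standard.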

Compound	IC50
CS(=N)(=O)c1cc(F)ccc1CC1CC2(C1)CN(C(=O)N1CC3(CC(c4nc(C5CC5)n[nH]4)C3)C1)C2 (stereo not drawn) [Example 735, [6-(3-cyclopropyl-1H-1,2,4-triazol-5-yl)-2-azaspiro[3.3]heptan-2-yl]-[6-[4-fluoro-2-(methylsulfonimidoyl)benzyl]-2-azaspiro[3.3]heptan-2-yl]methanone]	2.34 nM
CS(=N)(=O)c1ccc(CC2CC3(C2)CN(C(=O)N2CC4(CC(c5nc(C6CC6)n[nH]5)C4)C2)C3)cc1C(F)(F)F (stereo not drawn) [compound 952]	1.74 nM
N#Cc1c(OC2CN(C(=O)N3CC4(CC(c5nnc(C6CC6)[nH]5)C4)C3)C2)cccc1C1CC1 [compound 310]	2.3 nM
O=C(N1CC2(CCN(Cc3nc(C(F)(F)F)cs3)CC2)C1)N1CC2(CC(c3nc(C4CC4)n[nH]3)C2)C1 [compound 732]	6.18 nM
Cc1cc([C@H](C)C2CC3(C2)CN(C(=O)N2CC4(CC(c5nc(C6CC6)n[nH]5)C4)C2)C3)ncc1C(F)(F)F [compound 967]	0.18 nM
O=C(N1CC2(CC(c3nc(C4CC4)n[nH]3)C2)C1)N1CC2(CN(Cc3ncoc3C(F)(F)F)C2)C1 [compound 701]	64.4 nM
O=C(N1CC(c2ccc(Oc3ccccc3Cl)nc2)C1)N1CC2(CC(c3nnc(C4CC4)[nH]3)C2)C1 [compound 367]	0.15 nM
O=C(N1CC(c2ccc(NC3CCS(=O)(=O)C3)nc2)C1)N1CC2(CC(c3nnc(C4CC4)[nH]3)C2)C1 (stereo not drawn) [compound 81]	28.2 nM
Cn1nc(CC2CC3(C2)CN(C(=O)N2CC4(CC(c5nc(C6(F)CC6)n[nH]5)C4)C2)C3)cc1C(F)(F)F [compound 602]	0.11 nM
O=C(N1CC2(CC(c3nnc(C4CC4)[nH]3)C2)C1)N1CC2(C1)CN(S(=O)(=O)c1cccc(OC(F)(F)F)c1)C2 [compound 87]	8.21 nM
NC1(c2nnc(C3CC4(C3)CN(C(=O)N3CC5(CC(Cc6ccc(C(F)(F)F)cc6F)C5)C3)C4)[nH]2)CC1 [Example 852, [6-[5-(1-aminocyclopropyl)-4H-1,2,4-triazol-3-yl]-2-azaspiro[3.3]heptan-2-yl]-[6-[[2-fluoro-4-(trifluoromethyl)phenyl]methyl]-2-azaspiro[3.3]heptan-2-yl]methanone]	0.06 nM
O=C(N1CC(C23CC(Cc4nnc(C5CC5)o4)(C2)C3)C1)N1CC2(CC(c3nc(C4CC4)n[nH]3)C2)C1 [compound 928]	2.53 nM
O=C(N1CC2(CC(Cc3ccc(F)cc3C(F)(F)F)C2)C1)N1CC2(CC(c3nnc(C4(O)CC4)[nH]3)C2)C1 [compound 34]	0.01 nM
O=C(N1CC2(CC(Cc3ccc(S(=O)(=O)C(F)(F)F)cn3)C2)C1)N1CC2(CC(c3nc(C4(F)CC4)n[nH]3)C2)C1 [compound 652]	0.19 nM
NC1(c2nnc(C3CC4(C3)CN(C(=O)N3CC5(CC(Cc6ccc(F)cc6C(F)(F)F)C5)C3)C4)[nH]2)CC1 [Example 636]	0.03 nM
Cn1ncc(CC2CC3(C2)CN(C(=O)N2CC4(CC(c5nc(C6(O)CC6)n[nH]5)C4)C2)C3)c1C(F)(F)F [compound 815]	0.6 nM
O=C(N1CC2(CC(c3nc(C4(O)CC4)n[nH]3)C2)C1)N1CC2(CC[C@H](Cc3ccc(S(=O)(=O)C(F)(F)F)cc3)C2)C1 [compound 653]	1 nM
CS(=O)(=O)c1cc(C(F)(F)F)ccc1OCC1CCN(C(=O)N2CC3(CC(c4nc(C5CC5)n[nH]4)C3)C2)CC1 [Example 915, [6-(3-cyclopropyl-1H-1,2,4-triazol-5-yl)-2-azaspiro[3.3]heptan-2-yl]-[4-[[2-mesyl-4-(trifluoromethyl)phenoxy]methyl]piperidino]methanone]	241 nM
N#Cc1cc(CC2CC3(C2)CN(C(=O)N2CC4(CC(c5nc(C6CC(F)(F)C6)n[nH]5)C4)C2)C3)cc(C(F)(F)F)c1 [compound 579]	24 nM
O=C(N1CC(c2noc(C3(C(F)(F)F)CC3)n2)C1)N1CC2(CC(c3nnc(C4CC4)[nH]3)C2)C1 [compound 246]	66.8 nM
N=[S@](=O)(c1cccc(CC2CC3(C2)CN(C(=O)N2CC4(CC(c5nnc(C6CC6)[nH]5)C4)C2)C3)c1)C(F)(F)F (single isomer, unassigned) [compound 126]	0.06 nM
O=C(N1CC2(CC(Cc3nc(C(F)(F)F)co3)C2)C1)N1CC2(CC(c3nnc(C4(O)CC4)[nH]3)C2)C1 [compound 62]	8.06 nM
O=C(N1CC(COc2ccc(C(F)(F)F)cc2F)C1)N1CC2(CC(c3nnc(C4CC4)[nH]3)C2)C1 [compound 347]	0.31 nM
O=C(NC1(C(F)(F)F)CC1)C1CC2(C1)CN(C(=O)N1CC3(CC(c4nnc(C5CC5)[nH]4)C3)C1)C2 [compound 72]	157 nM
O=C(N1CC2(CC(c3nnc(C4CC4)[nH]3)C2)C1)N1CC2(C1)CN(S(=O)(=O)c1ccccc1OC(F)(F)F)C2 [compound 94]	3.88 nM
O=C(N1CC(Oc2cccc(C3CC3)c2F)C1)N1CC2(CC(c3nnc(C4(O)CC4)[nH]3)C2)C1 [compound 322]	11.7 nM

Compound	IC50
N=S(=O)(c1ccc(COC2CN(C(=O)N3CC4(CC(c5nc(C6(O)CC6)n[nH]5)C4)C3)C2)c(F)c1)C(F)(F)F (stereo not drawn) [Example 576, [3-[2-fluoro-4-(trifluoromethylsulfonimidoyl)benzyl]oxyazetidin-1-yl]-[6-[3-(1-hydroxycyclopropyl)-1H-1,2,4-triazol-5-yl]-2-azaspiro[3.3]heptan-2-yl]methanone]	85.1 nM
O=C(N1CC2(CC(Oc3cnn(CC(F)(F)F)c3)C2)C1)N1CC2(CC(c3nc(C4CC4)n[nH]3)C2)C1 [compound 631]	10.7 nM
O=C(N1CC(c2ccc(NCC3(C(F)(F)F)CC3)cc2)C1)N1CC2(CC(c3nnc(C4CC4)[nH]3)C2)C1 [compound 257]	0.08 nM
CCNC(=O)c1ccccc1-c1ccc(C2CN(C(=O)N3CC4(CC(c5nnc(C6CC6)[nH]5)C4)C3)C2)cc1 [Example 391, 2-[4-[1-[6-(5-cyclopropyl-4H-1,2,4-triazol-3-yl)-2-azaspiro[3.3]heptane-2-carbonyl]azetidin-3 yl]phenyl]-N-ethyl-benzamide]	48.3 nM
O=C(N1CC2(CC(c3nc(C4CC4)n[nH]3)C2)C1)N1CC2(CCN(Cc3cccc(S(=O)(=O)C(F)(F)F)c3)C2)C1 [compound 549]	0.66 nM
O=C(N1CC2(CC(Cc3ncn(CC(F)(F)F)n3)C2)C1)N1CC2(CC(c3nc(C4CC4)n[nH]3)C2)C1 [compound 962]	4.41 nM
N=S(=O)(c1ccc(C2CN(C(=O)N3CC4(CC(c5nc(C6(F)CC6)n[nH]5)C4)C3)C2)cc1)C(F)(F)F (stereo not drawn) [compound 564]	0.86 nM
O=C(N1CC(c2ccc(OC(F)(F)F)c(F)c2)C1)N1CC2(CC(c3nnc(C4CC4)[nH]3)C2)C1 [compound 241]	0.24 nM
N#Cc1ccc(CC2CC3(C2)CN(C(=O)N2CC4(CC(c5nc(C6(F)CC6)n[nH]5)C4)C2)C3)cc1C(F)(F)F [compound 569]	0.09 nM
O=C(N1CC(c2ccc(N3CC(C(F)(F)F)C3)nc2)C1)N1CC2(CC(c3nnc(C4CC4)[nH]3)C2)C1 [compound 258]	0.64 nM
CS(=O)(=O)c1ccc(OC2CCC3(C2)CN(C(=O)N2CC4(CC(c5nnc(C6CC6)[nH]5)C4)C2)C3)cc1C(F)(F)F (racemic) [compound 155]	1.99 nM
O=C(N1CC2(CC(Cn3ncnc3C(F)(F)F)C2)C1)N1CC2(CC(c3nc(C4CC4)n[nH]3)C2)C1 [compound 444]	3.25 nM
O=C(N1CC2(CC(Cn3cc(C4(C(F)(F)F)CC4)cn3)C2)C1)N1CC2(CC(c3nc(C4CC4)n[nH]3)C2)C1 [compound 711]	0.2 nM
O=C(N1CC(c2ccc(-n3ccc(C(F)(F)F)n3)cc2)C1)N1CC2(CC(c3nnc(C4CC4)[nH]3)C2)C1 [compound 873]	0.67 nM
O=C(N1CC2(CC(Cc3ccc4[nH]nc(C(F)(F)F)c4c3)C2)C1)N1CC2(CC(c3nc(C4CC4)n[nH]3)C2)C1 [compound 994]	0.06 nM
O=C(N1CC(C23CC(COc4ccc(C(F)(F)F)cn4)(C2)C3)C1)N1CC2(CC(c3nc(C4CC4)n[nH]3)C2)C1 [compound 941]	0.04 nM
O=C(N1CC2(CC(c3cnc(C(F)(F)F)nc3)C2)C1)N1CC2(CC(c3nnc(C4CC4)[nH]3)C2)C1 [compound 630]	1.36 nM
O=C(N1CC2(CC(Cc3ncc(C(F)(F)F)cn3)C2)C1)N1CC2(CC(c3nnc(C4CC4)[nH]3)C2)C1 [compound 28]	0.94 nM
O=C(N1CC(c2ccc(N3CCC(C(F)(F)F)CC3=O)cc2)C1)N1CC2(CC(c3nnc(C4CC4)[nH]3)C2)C1 (single isomer, unassigned) [compound 280]	3.82 nM
O=C(O)c1ccccc1-c1ccc(C2CN(C(=O)N3CC4(CC(c5nnc(C6CC6)[nH]5)C4)C3)C2)cc1 [Example 390, 2-[4-[1-[6-(5-cyclopropyl-4H-1,2,4-triazol-3-yl)-2-azaspiro[3.3]heptane-2-carbonyl]azetidin-3-yl]phenyl]benzoic Acid]	1.06 nM
O=C(N1CC(N(Cc2ccc(C(F)(F)F)cc2F)CC2CC2)C1)N1CC2(CC(c3nnc(C4CC4)[nH]3)C2)C1 [compound 201]	17 nM
Cn1ncc(CC2CC3(C2)CN(C(=O)N2CC4(CC(c5nc(C6COC6)n[nH]5)C4)C2)C3)c1C(F)(F)F [compound 774]	7.94 nM
O=C(N1CC2(CC(c3nnc(C4CC4)[nH]3)C2)C1)N1CC2(CCN(Cc3ccc(C(F)(F)F)cn3)C2)C1 [compound 182]	5.91 nM
O=C(N1CC2(CC(Cc3cc(F)cc(S(=O)(=O)C(F)(F)F)c3)C2)C1)N1CC2(CC(c3nc(C4(O)CC4)n[nH]3)C2)C1 [compound 518]	0.22 nM
CN(c1ccccc1)c1ccc(C2CN(C(=O)N3CC4(CC(c5nnc(C6CC6)[nH]5)C4)C3)C2)cn1 [compound 383]	2.09 nM

Reference: US20250099448A1, “HETEROCYCLIC COMPOUNDS” (Hoffmann-La Roche Inc., priority 2022, published 2025)
